Measured values taken from ChEMBL document CHEMBL1152525, “Synthesis and anti-HIV activity of novel 2',3'-dideoxy-3'-thiacytidine prodrugs” (Bioorg Med Chem, 2009).

Experiments:
in vitro = details: human, PBMC
Description: Cytotoxicity against human PBMC after 7 days by sulforhodamine B assay

physchem = details: octanol/water
Description: Lipophilicity, log P of the compound

[1] = system: Human immunodeficiency virus 1; assay: microbe, parasite or virus in culture; details: Human immunodeficiency virus 1, 168 h
Description: Antiviral activity against HIV1 infected in human PBMC assessed as inhibition of viral p24 antigen production after 7 days by ELISA

Compound | logP (physchem) | IC50 [1] | CC50 at 168 h (in vitro)
CC(C)CCOC(=O)OC[C@H]1O[C@@H](n2ccc(N)nc2=O)CS1 | -0.15 | 1270 nM | 3.33 mM
CCCCOC(=O)OC[C@H]1O[C@@H](n2ccc(N)nc2=O)CS1 | 0.86 | 200 nM | 4.5 mM
CCOC(=O)OC[C@H]1O[C@@H](n2ccc(N)nc2=O)CS1 | -0.31 | 200 nM | 3 mM
CCCOC(=O)OC[C@H]1O[C@@H](n2ccc(N)nc2=O)CS1 | 0.2 | 300 nM | 3.33 mM

The next lines start with results.

logP (physchem) | IC50 [1] | Compound | CC50 at 168 h (in vitro)
1.23 | 65 nM | CCCCCOC(=O)OC[C@H]1O[C@@H](n2ccc(N)nc2=O)CS1 | 1.29 mM
1.72 | 200 nM | CCCCCCCCOC(=O)OC[C@H]1O[C@@H](n2ccc(N)nc2=O)CS1 | 0.45 mM
1.57 | 250 nM | CCCCCCOC(=O)OC[C@H]1O[C@@H](n2ccc(N)nc2=O)CS1 | 0.857 mM
